Assay results: US20080015181A1, “Pharmaceutical Compositions Comprising Droxidopa” (Chelsea Therapeutics, Inc., priority 2006, published 2008)

Assays:
MAO-A than MAO-B = conditions: known; cited from earlier work
[1] = compound co-administered with droxidopa, relative to droxidopa alone; rat
Procedure: The pharmacokinetic properties of droxidopa combinations according to the invention were evaluated in male Sprague Dawley rats. Four test groups with four rats in each group were established. Group 1 was administered droxidopa alone as a baseline group. Group 2 was administered droxidopa in combination with the COMT inhibitor entacapone. Group 3 was administered droxidopa in combination with the cholinesterase inhibitor pyridostigmine. Group 4 was administered droxidopa in combination with the MAOI nialamide. For each group, the droxidopa or droxidopa combination was formulated with a vehicle formed of a water solution containing 1% carboxymethylcellulose with 0.2% TWEEN® 80 emulsifier.
Rats in each group were given a single gavage dose of droxidopa alone or the droxidopa combination, the time of dosing being recorded as time=0. Dosing was based upon the weight of the subject and was adjusted to provide all test subjects a droxidopa dose of approximately 100 mg per kg of body weight. […]
As a standard, plasma droxidopa concentration in rats administered the drug vehicle with no droxidopa or droxidopa combinations present was also evaluated, and no droxidopa was detected over a 24 hour period in plasma from the rats administered the vehicle alone. Likewise, no droxidopa was detected in any subjects prior to dosing of the droxidopa or droxidopa combinations. […]

plasma norepinephrine = assay: Plasma norepinephrine concentration after dosing of droxidopa or droxidopa combinations in rats; format: in vivo, male Sprague Dawley rats; conditions: 2 hours post-dosing, rat
Procedure: The pharmacokinetic properties of droxidopa combinations according to the invention were evaluated in male Sprague Dawley rats. Four test groups with four rats in each group were established. Group 1 was administered droxidopa alone as a baseline group. Group 2 was administered droxidopa in combination with the COMT inhibitor entacapone. Group 3 was administered droxidopa in combination with the cholinesterase inhibitor pyridostigmine. Group 4 was administered droxidopa in combination with the MAOI nialamide. For each group, the droxidopa or droxidopa combination was formulated with a vehicle formed of a water solution containing 1% carboxymethylcellulose with 0.2% TWEEN® 80 emulsifier. […] The amounts of entacapone, pyridostigmine, and nialamide used in formulations 2-7 were provided as “low” doses and “high” doses based upon disclosure in the literature of generally accepted dosage ranges for their respective known indications.
Rats in each group were given a single gavage dose of droxidopa alone or the droxidopa combination, the time of dosing being recorded as time=0. Dosing was based upon the weight of the subject and was adjusted to provide all test subjects a droxidopa dose of approximately 100 mg per kg of body weight. Blood samples (approximately 100 μL) were collected at approximately 5, 15, and 30 minutes, and at approximately 1, 2, 4, 8, and 24 hours after dosing. […]

For O=C(NCCN1CCOCC1)c1ccc(Cl)cc1 [moclobemide], the “selectivity for MAO-A than MAO-B” value (MAO-A than MAO-B) is listed as “approximately three times more selective for MAO-A than MAO-B”.
With CN(C)C(=O)Oc1ccc[n+](C)c1 [pyridostigmine, 3-dimethylcarbamoyloxy-1-methylpyridinium] the “effect on droxidopa half-life (in words)” value [1] was “increase in droxidopa half-life”.
In the case of CCN(CC)C(=O)/C(C#N)=C/c1cc(O)c(O)c([N+](=O)[O-])c1 [entacapone, [(E)-2-cyano-N,N-diethyl-3-(3,4-dihydroxy-5-nitrophenyl)propenamide]], the “plasma norepinephrine concentration in relation to treatment with droxidopa alone (in words)” value (plasma norepinephrine; compound combined with droxidopa) is reported as “increased plasma norepinephrine concentration beyond the effect of droxidopa alone”.
For NC(C(=O)O)C(O)c1ccc(O)c(O)c1 (stereo not drawn) [droxidopa, threo-3-(3,4-dihydroxyphenyl)serine], the “increase in plasma norepinephrine concentration” value (plasma norepinephrine; droxidopa alone versus vehicle alone) was ~5 fold.
